Measurements: patent publication US8569344B2, “N-piperidinyl acetamide derivatives as calcium channel blockers” (Zalicus Pharmaceuticals Ltd., priority 2008, dated 2013)

How the values were obtained:
[1] = molecular target: T1, human α1G T-type channels (Homo sapiens, UniProt O43497); test: T-type calcium channel block, whole cell patch clamp in HEK cells (α1G); assay type: cell-based; conditions: HEK cells, patch clamp, mainly non-inactivated protocol; values above 10 μM shown as 10 μM, below 0.30 μM shown as 0.30 μM; read-out: T-type Calcium Channel Block α1G IC50
T1 construct: expressed in transfected cells; host or cells: HEK 293
T1 sequence (O43497 whole entry): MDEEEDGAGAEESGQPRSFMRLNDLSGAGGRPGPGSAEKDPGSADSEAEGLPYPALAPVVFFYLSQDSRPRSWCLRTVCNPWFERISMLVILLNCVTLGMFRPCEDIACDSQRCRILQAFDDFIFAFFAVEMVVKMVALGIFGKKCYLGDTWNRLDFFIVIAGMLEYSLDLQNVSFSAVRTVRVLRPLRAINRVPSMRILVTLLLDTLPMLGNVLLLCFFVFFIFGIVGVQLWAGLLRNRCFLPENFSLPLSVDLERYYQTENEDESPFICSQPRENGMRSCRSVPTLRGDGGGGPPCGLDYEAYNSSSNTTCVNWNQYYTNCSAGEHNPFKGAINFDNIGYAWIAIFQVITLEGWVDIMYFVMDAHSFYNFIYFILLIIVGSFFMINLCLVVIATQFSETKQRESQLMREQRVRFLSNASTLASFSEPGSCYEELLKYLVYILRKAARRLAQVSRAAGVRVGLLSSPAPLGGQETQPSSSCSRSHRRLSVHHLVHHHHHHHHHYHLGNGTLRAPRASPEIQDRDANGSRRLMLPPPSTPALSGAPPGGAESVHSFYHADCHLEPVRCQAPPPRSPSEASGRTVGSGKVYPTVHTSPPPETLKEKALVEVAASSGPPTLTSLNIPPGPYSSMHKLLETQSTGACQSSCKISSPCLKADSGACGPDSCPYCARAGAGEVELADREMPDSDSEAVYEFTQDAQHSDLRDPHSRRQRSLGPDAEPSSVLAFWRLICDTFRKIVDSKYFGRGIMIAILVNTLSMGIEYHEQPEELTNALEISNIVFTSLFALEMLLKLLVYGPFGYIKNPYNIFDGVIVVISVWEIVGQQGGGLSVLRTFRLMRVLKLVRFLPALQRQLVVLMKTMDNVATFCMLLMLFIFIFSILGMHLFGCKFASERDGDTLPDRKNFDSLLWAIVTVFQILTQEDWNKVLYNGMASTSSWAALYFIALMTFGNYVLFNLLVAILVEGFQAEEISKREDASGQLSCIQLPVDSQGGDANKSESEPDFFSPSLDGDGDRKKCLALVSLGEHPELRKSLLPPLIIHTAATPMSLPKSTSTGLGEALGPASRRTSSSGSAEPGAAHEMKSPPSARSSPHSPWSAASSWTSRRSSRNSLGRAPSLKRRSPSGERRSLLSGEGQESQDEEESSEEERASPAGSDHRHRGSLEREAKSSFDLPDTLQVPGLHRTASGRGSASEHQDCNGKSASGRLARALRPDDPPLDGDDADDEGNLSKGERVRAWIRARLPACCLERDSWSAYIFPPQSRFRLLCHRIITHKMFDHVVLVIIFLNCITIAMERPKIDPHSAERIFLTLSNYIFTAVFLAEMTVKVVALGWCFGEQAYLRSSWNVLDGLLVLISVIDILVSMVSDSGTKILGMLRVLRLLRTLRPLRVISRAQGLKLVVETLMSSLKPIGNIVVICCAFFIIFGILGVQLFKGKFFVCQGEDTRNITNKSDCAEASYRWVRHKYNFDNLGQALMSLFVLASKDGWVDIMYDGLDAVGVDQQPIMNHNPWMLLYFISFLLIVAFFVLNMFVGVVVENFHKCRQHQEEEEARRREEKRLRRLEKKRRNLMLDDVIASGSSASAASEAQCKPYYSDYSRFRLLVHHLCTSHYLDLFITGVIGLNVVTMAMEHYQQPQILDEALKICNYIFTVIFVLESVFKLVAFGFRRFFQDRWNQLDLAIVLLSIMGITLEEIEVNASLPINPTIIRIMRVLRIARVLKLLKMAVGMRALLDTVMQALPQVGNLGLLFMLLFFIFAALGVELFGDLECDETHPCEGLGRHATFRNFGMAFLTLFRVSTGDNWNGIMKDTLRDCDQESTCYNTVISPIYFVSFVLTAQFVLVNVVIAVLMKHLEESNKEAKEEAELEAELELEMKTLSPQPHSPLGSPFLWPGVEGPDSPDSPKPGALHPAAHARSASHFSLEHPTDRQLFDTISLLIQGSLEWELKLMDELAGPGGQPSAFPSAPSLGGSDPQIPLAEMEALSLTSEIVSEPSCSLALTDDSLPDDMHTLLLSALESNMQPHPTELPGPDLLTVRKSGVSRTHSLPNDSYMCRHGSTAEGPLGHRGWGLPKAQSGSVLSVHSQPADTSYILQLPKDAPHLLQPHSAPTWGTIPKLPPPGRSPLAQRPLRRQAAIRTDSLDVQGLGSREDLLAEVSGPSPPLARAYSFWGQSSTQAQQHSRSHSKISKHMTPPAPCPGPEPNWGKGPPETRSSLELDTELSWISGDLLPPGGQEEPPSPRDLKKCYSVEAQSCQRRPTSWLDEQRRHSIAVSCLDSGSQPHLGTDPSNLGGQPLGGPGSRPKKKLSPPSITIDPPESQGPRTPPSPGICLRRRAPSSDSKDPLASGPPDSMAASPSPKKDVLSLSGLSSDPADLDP

[2] = molecular target: T2, human α1H T-type channels (Homo sapiens, UniProt O95180); test: T-type calcium channel block, whole cell patch clamp in HEK cells (α1H); assay type: cell-based; conditions: HEK cells, patch clamp, mainly non-inactivated protocol; values above 10 μM shown as 10 μM; read-out: T-type Calcium Channel Block α1H IC50
T2 construct: expressed in transfected cells; host or cells: HEK 293
T2 sequence (O95180 whole entry): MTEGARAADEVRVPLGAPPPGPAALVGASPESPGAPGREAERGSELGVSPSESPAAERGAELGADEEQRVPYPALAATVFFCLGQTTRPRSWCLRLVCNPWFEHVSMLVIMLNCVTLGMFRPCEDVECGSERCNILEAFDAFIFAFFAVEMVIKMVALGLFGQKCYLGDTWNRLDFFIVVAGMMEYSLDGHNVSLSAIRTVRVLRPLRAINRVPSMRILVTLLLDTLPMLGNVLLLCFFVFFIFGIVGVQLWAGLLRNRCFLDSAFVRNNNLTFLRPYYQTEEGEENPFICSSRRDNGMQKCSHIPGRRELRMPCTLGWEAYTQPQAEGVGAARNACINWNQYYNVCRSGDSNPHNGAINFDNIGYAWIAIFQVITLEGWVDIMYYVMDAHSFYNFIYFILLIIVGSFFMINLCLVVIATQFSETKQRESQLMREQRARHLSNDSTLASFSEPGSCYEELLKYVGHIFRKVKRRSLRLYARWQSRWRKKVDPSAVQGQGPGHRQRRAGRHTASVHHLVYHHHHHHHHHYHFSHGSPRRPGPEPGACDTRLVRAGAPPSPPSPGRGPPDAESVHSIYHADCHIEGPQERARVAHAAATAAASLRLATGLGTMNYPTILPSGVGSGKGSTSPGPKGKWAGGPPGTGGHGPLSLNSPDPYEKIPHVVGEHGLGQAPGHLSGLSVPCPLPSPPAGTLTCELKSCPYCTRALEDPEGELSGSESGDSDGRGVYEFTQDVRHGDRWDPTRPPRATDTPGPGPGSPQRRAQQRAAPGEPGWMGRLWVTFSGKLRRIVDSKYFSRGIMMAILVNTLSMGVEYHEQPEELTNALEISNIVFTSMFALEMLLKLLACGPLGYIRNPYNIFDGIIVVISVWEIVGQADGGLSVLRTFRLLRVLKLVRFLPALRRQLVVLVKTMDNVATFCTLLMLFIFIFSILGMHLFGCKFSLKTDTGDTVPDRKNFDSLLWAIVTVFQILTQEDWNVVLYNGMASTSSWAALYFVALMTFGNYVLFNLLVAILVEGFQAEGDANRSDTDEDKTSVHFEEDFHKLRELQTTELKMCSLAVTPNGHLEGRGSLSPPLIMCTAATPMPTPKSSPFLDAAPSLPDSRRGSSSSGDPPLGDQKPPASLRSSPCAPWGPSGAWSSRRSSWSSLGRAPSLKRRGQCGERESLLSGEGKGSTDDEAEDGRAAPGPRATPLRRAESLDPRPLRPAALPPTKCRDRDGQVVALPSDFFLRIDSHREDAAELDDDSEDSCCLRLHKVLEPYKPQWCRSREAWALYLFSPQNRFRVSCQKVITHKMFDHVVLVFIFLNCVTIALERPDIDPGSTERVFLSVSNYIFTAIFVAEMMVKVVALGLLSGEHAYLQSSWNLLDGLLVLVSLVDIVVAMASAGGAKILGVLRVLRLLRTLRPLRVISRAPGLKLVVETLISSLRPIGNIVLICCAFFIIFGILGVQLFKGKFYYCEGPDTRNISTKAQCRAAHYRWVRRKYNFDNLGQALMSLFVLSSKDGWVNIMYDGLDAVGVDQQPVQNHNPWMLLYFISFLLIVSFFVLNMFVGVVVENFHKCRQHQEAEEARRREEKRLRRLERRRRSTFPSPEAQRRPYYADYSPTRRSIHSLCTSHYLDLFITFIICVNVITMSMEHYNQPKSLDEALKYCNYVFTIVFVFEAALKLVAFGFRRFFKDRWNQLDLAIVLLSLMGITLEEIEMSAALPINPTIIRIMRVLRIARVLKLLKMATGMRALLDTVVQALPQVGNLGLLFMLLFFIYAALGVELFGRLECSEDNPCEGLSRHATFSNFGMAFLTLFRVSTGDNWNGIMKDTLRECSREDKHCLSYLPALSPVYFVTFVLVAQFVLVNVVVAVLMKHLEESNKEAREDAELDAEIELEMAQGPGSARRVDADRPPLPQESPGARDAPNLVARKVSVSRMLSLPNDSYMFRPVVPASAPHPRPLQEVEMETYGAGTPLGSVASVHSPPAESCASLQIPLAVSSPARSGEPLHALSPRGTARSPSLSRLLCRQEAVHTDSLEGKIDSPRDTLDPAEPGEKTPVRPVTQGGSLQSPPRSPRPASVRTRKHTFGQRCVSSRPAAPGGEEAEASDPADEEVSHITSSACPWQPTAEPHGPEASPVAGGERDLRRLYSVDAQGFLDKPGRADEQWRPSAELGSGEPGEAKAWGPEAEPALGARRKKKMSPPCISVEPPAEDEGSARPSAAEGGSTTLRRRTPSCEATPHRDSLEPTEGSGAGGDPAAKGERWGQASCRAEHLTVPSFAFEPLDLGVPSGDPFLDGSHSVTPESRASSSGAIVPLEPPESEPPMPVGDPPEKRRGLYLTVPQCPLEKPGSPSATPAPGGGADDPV

| Compound | IC50 [1] [nM] | IC50 [2] [nM] |
| --- | --- | --- |
| COc1cc(C(=O)NCC2CCN(CCNS(=O)(=O)C3CC3)CC2)cc(C(F)(F)F)c1 [Compound 235, N-((1-(2-(cyclopropanesulfonamido)ethyl)piperidin-4-yl)methyl)-3-methoxy-5-(trifluoromethyl)benzamide] | < 300 | 440 |
| CC(C)(C)C(=O)NCCN1CCC(CNC(=O)c2cc(C(F)(F)F)ccn2)CC1 [Compound 310, N-((1-(2-pivalamidoethyl)piperidin-4-yl)methyl)-4-(trifluoromethyl) picolinamide] | > 10000 | > 10000 |
| CC(C)(C)C(=O)NCCN1CCC(CNC(=O)c2cc(F)cc(F)c2)CC1 [Compound 293, 3,5-difluoro-N-((1-(2-pivalamidoethyl)piperidin-4-yl)methyl)benzamide] | 5180 | 4070 |
| CC(C(=O)NC1CCCC1)N1CCC(CNC(=O)c2cc(F)cc(Cl)c2)CC1 (stereo not drawn) [Compound 549, 3-chloro-N-((1-(1-(cyclopentylamino)-1-oxopropan-2-yl)piperidin-4-yl)methyl)-5-fluorobenzamide] | < 300 | 110 |
| O=C(NCC1CCN(CCNS(=O)(=O)C2CC2)CC1)c1cc(F)cc(C(F)(F)F)c1 [Compound 230, N-((1-(2-(cyclopropanesulfonamido)ethyl)piperidin-4-yl)methyl)-3-fluoro-5-(trifluoromethyl)benzamide] | 4760 | 850 |
| CN(CCN1CCC(CNC(=O)c2cc(F)cc(C(F)(F)F)c2)CC1)C(=O)C1(C)CC1 [Compound 518, N-((1-(2-(N,1-dimethylcyclopropanecarboxamido)ethyl)piperidin-4-yl)methyl)-3-fluoro-5-(trifluoromethyl)benzamide] | 1310 | 810 |
| CC(C)NC(=O)CN1CCC(CNC(=O)c2cc(F)cc(Cl)c2)CC1 [Compound 443, 3-chloro-5-fluoro-N-((1-(2-(isopropyl-amino)-2-oxoethyl)piperidin-4-yl)methyl)benzamide] | 3310 | 2810 |
| O=C(NCC1CCN(CCNC(=O)C2(C(F)(F)F)CCC2)CC1)c1cc(C(F)(F)F)cc(C(F)(F)F)c1 [Compound 434, 3,5-bis(trifluoromethyl)-N-((1-(2-(1-(trifluoromethyl)cyclobutanecarboxamido)ethyl)piperidin-4-yl)methyl)benzamide] | < 300 | 60 |
| CC(C)(C)OC(=O)NCCN1CCC(CNC(=O)c2cccc(C(F)(F)F)c2)CC1 [Compound 39, tert-butyl 2-(4-((3-(trifluoromethyl)benzamido)methyl)piperidin-1-yl)ethylcarbamate] | 1310 | 1170 |
| CC(C)(C(=O)NCCN1CCC(CNC(=O)c2cc(C(F)(F)F)cc(S(C)(=O)=O)c2)CC1)C(F)(F)F [Compound 587, 3-(methylsulfonyl)-N-((1-(2-(3,3,3-trifluoro-2,2-dimethyl-propanamido)ethyl)piperidin-4-yl)methyl)-5-(trifluoromethyl) benzamide] | > 10000 | 3590 |
| CC(C)(C)NC(=O)CN1CCC(CNC(=O)c2cc(Br)cc(Br)c2)CC1 [Compound 384, 3,5-dibromo-N-((1-(2-(tert-buylamino)-2-oxoethyl)piperidin-4-yl)methyl)benzamide] | < 300 | 90 |
| CN(CC(=O)N1CCC(CNC(=O)c2cc(C(F)(F)F)cc(C(F)(F)F)c2)CC1)C1CCCCC1 [Compound 246, N-((1-(2-(cyclohexyl(methyl)amino)acetyl)piperidin-4-yl)methyl)-3,5-bis(trifluoromethyl)benzamide] | 1310 | 1130 |
| COCC(COC)NC(=O)CN1CCC(CNC(=O)c2cc(F)cc(C(F)(F)F)c2)CC1 [Compound 354, N-((1-(2-(1,3-dimethoxypropan-2-ylamino)-2-oxoethyl)piperidin-4-yl)methyl)-3-fluoro-5-(trifluoromethyl) benzamide] | 1840 | 2140 |
| Cc1cc(C)cc(C(=O)NCC2CCN(CCNC(=O)C(C)(C)C(F)(F)F)CC2)c1 [Compound 488, 3,5-dimethyl-N-((1-(2-(3,3,3-trifluoro-2,2-dimethylpropanamido)ethyl)piperidin-4-yl)methyl)benzamide] | 420 | 130 |
| CC(C)(C)N/C(CN1CCC(CNC(=O)c2cc(C(F)(F)F)cc(C(F)(F)F)c2)CC1)=N\C#N [Compound 503, (Z)-N-((1-(2-(tert-buylamino)-2-(cyanoimino)ethyl)piperidin-4-yl)methyl)-3,5-bis(trifluoromethyl) benzamide] | 1550 | 7200 |
| CCOC1CCN(C(=O)CN2CCC(CNC(=O)c3cc(C(F)(F)F)cc(C(F)(F)F)c3)CC2)CC1 [Compound 305, N-((1-(2-(4-ethoxypiperidin-1-yl)-2-oxoethyl)piperidin-4-yl)methyl)-3,5-bis(trifluoromethyl)benzamide] | 7420 | 4450 |
| CC(C)(C)C(=O)NCCN1CCC(CNC(=O)/C=C/c2cc(F)cc(F)c2)CC1 [Compound 297, (E)-3-(3,5-difluorophenyl)-N-((1-(2-pivalamidoethyl)piperidin-4-yl)methyl)acrylamide] | > 10000 | > 10000 |
| COc1cc(F)cc(C(=O)NCC2CCN(CC(=O)N3CCC[C@@H]3C(F)(F)F)CC2)c1 [Compound 505, (R)-3-fluoro-5-methoxy-N-((1-(2-oxo-2-(2-(trifluoromethyl)pyrrolidin-1-yl)ethyl)piperidin-4-yl)methyl) benzamide] | 770 | 580 |
| CC(C)(C)OC(=O)NCCN1CCC(CNC(=O)c2cc(Cl)cc(C(F)(F)F)c2)CC1 [Compound 40, tert-butyl 2-(4-((3-chloro-5-(trifluoromethyl)benzamido)methyl)piperidin-1-yl)ethylcarbamate] | < 300 | 160 |
| CC(C(=O)N1CCSC1)N1CCC(CNC(=O)c2cc(F)cc(Cl)c2)CC1 (stereo not drawn) [Compound 559, 3-chloro-5-fluoro-N-((1-(1-oxo-1-(thiazolidin-3-yl)propan-2-yl)piperidin-4-yl)methyl)benzamide] | 9060 | > 10000 |
| CC(C)(C)c1ccc(C(=O)NCC2CCN(CCNS(=O)(=O)C3CC3)CC2)cc1 [Compound 238, 4-tert-butyl-N-((1-(2-(cyclopropanesulfonamido)ethyl)piperidin-4-yl)methyl)benzamide] | > 10000 | > 10000 |
| COc1cc(F)cc(C(=O)NCC2CCN(CC(=O)N3CCC[C@H]3C(F)(F)F)CC2)c1 [Compound 465, (S)-3-fluoro-5-methoxy-N-((1-(2-oxo-2-(2-(trifluoromethyl)pyrrolidin-1-yl)ethyl)piperidin-4-yl)methyl)benzamide] | < 300 | 170 |
| CC(C)(C(=O)NCCN1CCC(CNC(=O)c2cc(F)cc(C(F)(F)F)c2)CC1)C(F)(F)F [Compound 339, 3-fluoro-N-((1-(2-(3,3,3-trifluoro-2,2-dimethylpropanamido)ethyl)piperidin-4-yl)methyl)-5-(trifluoromethyl)benzamide] | < 300 | 130 |
| O=C(NCC1CCN(CCNS(=O)(=O)C2CC2)CC1)c1ccc(OC(F)(F)F)cc1 [Compound 232, N-((1-(2-(cyclopropanesulfonamido)ethyl)piperidin-4-yl)methyl)-4-(trifluoromethoxy)benzamide] | 5010 | 2870 |
